Test results published in patent US4962097A, “Method of treating bacterial infection with phosphorus containing DHP enzyme inhibitors” (Merck & Co., Inc., priority 1989, dated 1990).

Target: T1, renal dehydropeptidase I (Sus scrofa, UniProt P22412)
T1 construct: isolated from hog kidneys; from tissue; host or cells: hog kidney
T1 sequence (P22412 17-409): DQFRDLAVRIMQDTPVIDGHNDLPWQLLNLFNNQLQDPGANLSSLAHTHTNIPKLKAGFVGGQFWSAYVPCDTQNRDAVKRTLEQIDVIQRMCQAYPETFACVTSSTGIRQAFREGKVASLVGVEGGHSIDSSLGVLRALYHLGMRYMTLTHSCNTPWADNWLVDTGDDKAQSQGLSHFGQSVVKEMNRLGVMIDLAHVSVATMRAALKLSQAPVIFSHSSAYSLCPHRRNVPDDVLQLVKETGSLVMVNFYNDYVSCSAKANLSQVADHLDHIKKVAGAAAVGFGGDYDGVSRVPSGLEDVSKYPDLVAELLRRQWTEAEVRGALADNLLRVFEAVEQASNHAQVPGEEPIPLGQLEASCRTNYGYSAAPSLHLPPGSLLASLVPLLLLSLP
Assay: in vitro screen: inhibition of hydrolysis of glycyldehydrophenylalanine (GDP) by solubilized renal dipeptidase from hog kidneys (renal dehydropeptidase I inhibition)
Format: biochemical
Settings: Table I, structure II (olefins); GDP 0.05 mM, 50 mM MOPS pH 7.1, 37° C., 275 nm
Method: This measured the ability of compounds to inhibit hydrolysis of glycyldehydrophenylalanine (GDP) by a solubilized preparation of […] isolated from hog kidneys. The procedure is as follows: to a 1 ml system containing 50 mM "MOPS" (3-(N-morpholino)-propanesulfonic acid) buffer, pH 7.1 is added 5 mg of lyophilized enzyme, and the test compound at a final concentration of 0.1 mM. After a five minute incubation at 37° C., GDP is added to a final concentration of 0.05 mM. Incubation is continued for 10 minutes, at 37° C. and hydroylsis of GDP is measured by the change in optical density with time at 275 nm. Inhibition of the enzyme is gauged by comparison to a standard run containing no inhibitor and is expressed as the inhibitor binding constant K. This is the concentration of the inhibitor which achieves 50% inhibition of the enzyme.

Point of comparison: `N[C@@H](CC1CCCCC1)P(=O)(O)C/C(=C\C1CCCCC1)C(=O)O` [(cyclo-C6 H11)CH2; cyclo-C6 H11; R; Z, (1(R)-Amino-2-cyclohexylethyl)2-carboxyl-3(Z)-cyclohexyl-2-propenyl phosphinic acid], Ki 0.52 nM. Against it:
- CCCCC/C=C(\CP(=O)(O)C(N)Cc1ccccc1)C(=O)O (centres unmarked) [PhCH2; CH3 (CH2)4; RS; Z] — 130-fold higher, 68 nM
- CCCC/C=C(\CP(=O)(O)C(N)CC(C)C)C(=O)O (centres unmarked) [(CH3)2 CHCH2; CH3 (CH2)3; RS; Z] — 3.1-fold higher, 1.6 nM
- CCCCC/C=C(\CP(=O)(O)C(N)CC1CCCCC1)C(=O)O (centres unmarked) [(cyclo-C6 H11)CH2; CH3 (CH2)4; RS; Z, (1-Amino-2-cyclohexylethyl) 2-carboxy-2(Z)-octenyl phosphinic acid] — 6-fold higher, 3.1 nM
- (1(R)-Amino-2-cyclohexylethyl)2-carboxyl-4-methyl-(E & Z)-2-butenyl phosphinic acids (15C & 15D) [(cyclo-C6 H11)CH2; (CH3)2 CH; RS; Z] [listing 1 of 2 here] — 40-fold higher, 21 nM
- CCCCCC(N)P(=O)(O)C/C(=C\C1CCCCC1)C(=O)O (centres unmarked) [CH3 (CH2)4; cyclo-C6 H11; RS; Z, (1-Aminohexyl) 2-carboxy-3-cyclohexyl-2(Z)-propenyl phosphinic acid] — within 1.5-fold, 0.5 nM
- (1(R)-Amino-2-cyclohexylethyl)2-carboxyl-4-methyl-(E & Z)-2-butenyl phosphinic acids (15C & 15D) [(cyclo-C6 H11)CH2; (CH3)2 CH; RS; Z] [listing 2 of 2 here] — 4-fold higher, 2.1 nM
- N[C@@H](CC1CCCCC1)P(=O)(O)C/C(=C\CC1CCCC1)C(=O)O [(1(R)-Amino-2-cyclohexylethyl)2-carboxy-4-cyclopentyl-2(Z)-butenyl phosphinic acid] — 1.7-fold higher, 0.86 nM
- NC(CC1CCCCC1)P(=O)(O)C/C(=C\C1CCCCC1)C(=O)O (centres unmarked) [(cyclo-C6 H11)CH2; cyclo-C6 H11; RS; Z, (1-Amino-2-cyclohexylethyl) 2-carboxy-3(Z)-cyclohexyl-2-propenyl phosphinic acid] — 1.7-fold higher, 0.9 nM
- CCCCC/C=C(\CP(=O)(O)C(N)CCCCC)C(=O)O (centres unmarked) [CH3 (CH2)4; CH3 (CH2)4; RS; Z, (1-Aminohexyl) 2-carboxy-2(Z)-octenyl phosphinic acid] — 2.7-fold higher, 1.4 nM
- CC(C)/C=C(\CP(=O)(O)[C@@H](N)CC1CCCCC1)C(=O)O [(cyclo-C6 H11)CH2; (CH3)2 CH; R; Z] — within 1.5-fold, 0.54 nM

Same assay, conditions: Table II, structure I (saturated); GDP 0.05 mM, 50 mM MOPS pH 7.1, 37° C., 275 nm

Point of comparison: `CCCCCCC(CP(=O)(O)C(N)CC1CCCCC1)C(=O)O` (centres unmarked) [(cyclo-C6 H11)CH2; CH3 (CH2)5; RS; RS, (1-Amino-2-cyclohexylethyl) 2-carboxy-1-octyl phosphinic acid], Ki 1.6 nM. Against it:
- N[C@@H](CC1CCCCC1)P(=O)(O)CC(CCC1CCCC1)C(=O)O (some centres unmarked) [(1-Amino-2-cyclohexylethyl) 2-carboxy-4-cyclopentyl-1-butyl phosphinic acid] — 1.7-fold higher, 2.7 nM
- CCC(N)P(=O)(O)CC(CCc1ccccc1)C(=O)O (racemic) [CH3 CH2; Ph(CH2)2; RS; RS, 1-Aminopropyl-[2-carboxy-4-phenyl-l-butyl]phosphinic acid] — 4.2-fold higher, 6.8 nM
- CCCCCC(N)P(=O)(O)CC(CC1CCCCC1)C(=O)O (centres unmarked) [CH3 (CH2)4; (cyclo-C6 H11)CH2; RS; RS, (1-Amino-1-hexyl) 2-carboxy-3-cyclohexyl-1-propyl phosphinic acid] — 6.1-fold higher, 9.7 nM
- CCCCCC(N)P(=O)(O)CC(CCC1CCCC1)C(=O)O (racemic) [CH3 (CH2)4; (cyclo-C5 H9)CH2 CH2; RS; RS, (1-Amino-1-hexyl) 2-carboxy-4-cyclopenyl-1-butyl phosphinic acid] — 4.4-fold higher, 7 nM
- CCCCC(CP(=O)(O)C(N)CC)C(=O)O (racemic) [CH3 CH2; CH3 (CH2)3; RS; RS, 1-Aminopropyl-[2-carboxy-l-hexyl]phosphinic acid] — within 1.5-fold, 2.3 nM
- CCC(CP(=O)(O)C(N)CC)C(=O)O (racemic) [CH3 CH2; CH3 CH2; RS; RS, 1-Aminopropyl-[2-carboxy-l-butyl]phosphinic acid] — within 1.5-fold, 1.3 nM
- CCCCC(CP(=O)(O)C(N)CC(C)C)C(=O)O (centres unmarked) [(CH3)2 CHCH2; CH3 (CH2)3; RS; RS, 1-Amino-3-methylbutyl-[2-carboxy-1-hexyl]phosphinic acid] — within 1.5-fold, 2.4 nM
- N[C@@H](CC1CCCCC1)P(=O)(O)CC(CC1CCCCC1)C(=O)O (some centres unmarked) [(1-Amino-2-cyclohexylethyl)-2-carboxy-3-cyclohexyl-1-propyl phosphinic acid] — 3.2-fold lower, 0.5 nM
- CCCCC(CP(=O)(O)C(N)Cc1ccccc1)C(=O)O (centres unmarked) [PhCH2; CH3 (CH2)3; RS; RS, 1-Amino-2-phenylethyl-[2-carboxy-1-hexyl]phosphinic acid] — 52-fold higher, 84 nM
- N[C@@H](CC1CCCCC1)P(=O)(O)CC(CCCc1ccncc1)C(=O)O (some centres unmarked) [(1-Amino-2-cyclohexylethyl)-2-carboxy-5-(4-pyridyl)-pentyl phosphinic acid] — 2.5-fold higher, 4 nM
- CCCCCCC(CP(=O)(O)C(N)CCCCC)C(=O)O (racemic) [CH3 (CH2)4; CH3 (CH2)5; RS; RS, (1-Amino-1hexyl) 2-carboxy-l-octyl phosphinic acid] — 5-fold higher, 8 nM
